For data set [1], the system named is Aliivibrio fischeri (strain NRRL B-11177). Details: method as in earlier work. As to conditions: ref [10] (Turek et al., J. Haz. Mat. 399 (2020) 122839), cited from earlier work; for EC50 5 min: 5 min of incubation.
The nature of data set [2]: pH values of samples used in Microtox test. In kind it is physicochemical. To be noted: sample used in Microtox test.
Data set [3] relates to Aliivibrio fischeri (strain NRRL B-11177). As to the kind of experiment: modified Microtox Basic Solid Phase Test (bioluminescence inhibition). In kind it is cell-based. To be noted: for EC50: Aliivibrio fischeri. As for the experimental part: (§1) The bioluminescent marine bacterium Aliivibrio fischeri (strain NRRL B-11177) was used to evaluate the acute toxicity of individual excipients, as well as the API–excipient and excipient–excipient mixtures (Figure 1). The inhibition of bioluminescence was measured using the Microtox® Model 500 Analyzer (Modern Water Inc., New Castle, DE, USA). The modified Microtox® Basic Solid Phase Test protocol was applied, which was described in detail in our previous work; a scheme illustrating the course of the ecotoxicological study is shown in Figure 4. The bioluminescence inhibition of A. fischeri was measured after 5, 15, and 30 min of exposure of the bacterium to each sample and then compared with the light output of a control sample. […] Software™.

Assay in data set [4]: as above
The data set is classed as cell-based, Aliivibrio fischeri. To be noted: Aliivibrio fischeri, Toxicity Category (Based on EC50, 30 min). As for the experimental part: as §1

Data set [5] concerns various aquatic organisms. To be noted: ref [16, 17, 18, 19, 20]; cited from earlier work.
Setting [6] is: NRRLB11177, 0.5 h, 30 min of exposure, 95% confidence interval in brackets, read-out: EC50 30 min.
[7] abbreviates: NRRLB11177, 5 min, read-out: EC50 5 min, 5 min of exposure, 95% confidence interval in brackets.
[8] abbreviates: NRRLB11177, 0.25 h, 15 min of exposure, 95% confidence interval in brackets, read-out: EC50 15 min.
[9] abbreviates: 30 min of exposure, 95% confidence interval in brackets.
Setting [10] is: 5 min of exposure, 95% confidence interval in brackets.
Setting [11] is: 15 min of exposure, 95% confidence interval in brackets.

≈ marks a conversion by molar mass, not a printed value. Where “and” joins values, the source holds several entries; their conditions need not be identical. Identical values can stand only once. Counter-ions that a name gives are not always drawn. Like-named read-outs stand apart in the source and are kept apart here. Marks after values point to notes of the source that are not given here.

With `CCCCc1nc(Cl)c(CO)n1Cc1ccc(-c2ccccc2-c2nn[nH]n2)cc1` [LOS-K, Losartan potassium, reference compound], in data set [1], the “EC50 5 min” value is 583.88 µg/mL and the “EC50 15 min” value is 659.02 µg/mL. In addition, the pH in data set [2] is on record as 7.750. Also, in data set [3] (setting [6]), the EC50 amounted to 277 µg/mL.
Regarding `OC[C@H]1O[C@@H](O[C@H]2[C@H](O)[C@@H](O)[C@@H](O)O[C@@H]2CO)[C@H](O)[C@@H](O)[C@H]1O` [Lactose monohydrate], the pH in data set [2] is recorded as 5.113. Further, in data set [4], the EC50 at 30 min was > 100 µg/mL. Also, the EC50 in data set [3] (setting [7]) is 11700 µg/mL; in data set [3] (setting [8]) it was 14000 µg/mL; in data set [3] (NRRLB11177, 0.5 h, 30 min of exposure, EC50 calculated from extrapolated data, read-out: EC50 30 min), 16400 µg/mL.
For `OC[C@@H](O)[C@@H](O)[C@H](O)[C@H](O)CO` [Mannitol], the pH in data set [2] amounted to 6.390. Besides, the concentration giving a half-maximal response (EC50) at 30 min in data set [4] was > 100 µg/mL. The EC50 stood at 12600 µg/mL (≈ 69000 µM) in data set [3] (setting [7]), 5400 µg/mL (≈ 29700 µM) in data set [3] (setting [8]) and 4250 µg/mL (≈ 23300 µM) in data set [3] (setting [6]).
As to `CNC[C@H](O)[C@@H](O)[C@H](O)[C@H](O)CO` [Meglumine], the pH in data set [2] was 10.830 and ~11. This molecule came in with an EC50 at 30 min in data set [4] of 10 to 100 µg/mL. Further, in data set [3] (setting [9]), the “EC50 30 min” value was 18.05 (7.237–45.02) 0.7516 mg/L. In addition, the EC50 in data set [3] (setting [7]) was 28.6 µg/mL; in data set [3] (setting [8]), 19.7 µg/mL; in data set [3] (setting [6]), 10 to 100 µg/mL.
`CCCCCCCCCCCCOS(=O)(=O)O` [Sodium lauryl sulfate (SLS), Sodium lauryl sulfate] came in with a pH in data set [2] of 6.779. Further, the “LC50 (lethal concentration)” value in data set [5] is 1 to 13.9 µg/mL. For the same molecule, in data set [4], the EC50 at 30 min was < 1 µg/mL. For the same molecule, the “EC50 30 min” value in data set [3] (setting [9]) is 0.5544 (0.1138–2.702) 0.6931 mg/L. In addition, the EC50 is 1.37 µg/mL in data set [3] (setting [7]), 0.8 µg/mL in data set [3] (setting [8]) and < 1 µg/mL in data set [3] (setting [6]).
In the case of `CCCCCCCCCCCCCCCCCCOC(=O)/C=C/C(=O)[O-].[Na+]` [Sodium stearyl fumarate], the “EC50 5 min” value in data set [3] (5 min, value calculated using two points, 95% confidence interval and R^2 could not be determined) was 56,456 ^[b] mg/L. For the same molecule, in data set [3] (15 min of exposure, EC50 calculated from extrapolated data), the “EC50 15 min” value was 12,815 ^[a] (38.84–4,457,999) 0.9221 mg/L. For the same molecule, the “EC50 30 min” value in data set [3] (30 min of exposure, EC50 calculated from extrapolated data) is 80,534 ^[a] (2479–2,616,211) 0.8896 mg/L.
Regarding `OC[C@@H](O)[C@@H](O)[C@H](O)[C@@H](O)CO` [Sorbitol], in data set [2], the pH was 7.446. In data set [4], the EC50 at 30 min is > 100 µg/mL. In data set [3] (setting [10]), the “EC50 5 min” value is “Non-toxic in tested concentration, hormesis”. Also, the “EC50 15 min” value in data set [3] (setting [11]) is “Non-toxic in tested concentration, hormesis”. Also, the “EC50 30 min” value in data set [3] (setting [9]) is on record as “Non-toxic in tested concentration, hormesis”; in data set [3] (30 min of exposure, 95% confidence interval in brackets, listed as sorbitol), “completely non-toxic at the tested concentration”.
Consider `CCCc1nc2c(C)cc(-c3nc4ccccc4n3C)cc2n1Cc1ccc(-c2ccccc2C(=O)O)cc1` [TEL, Telmisartan, reference compound], for which, in data set [1], the “EC50 5 min” value was 196.52 µg/mL (≈ 382 µM) and the “EC50 15 min” value is 99.70 µg/mL (≈ 194 µM). Moreover, the pH in data set [2] worked out at 8.036. In data set [3] (setting [6]), the EC50 was 77.3 µg/mL (≈ 150 µM).
As to `CCCCC(=O)N(Cc1ccc(-c2ccccc2-c2nnn[nH]2)cc1)[C@H](C(=O)O)C(C)C` [VAL, Valsartan, reference compound], in data set [1], the “EC50 5 min” value was 143.20 µg/mL (≈ 329 µM) and the “EC50 15 min” value is 234.83 µg/mL (≈ 539 µM). Also, the pH in data set [2] turned out to be 4.970. Besides, in data set [3] (setting [6]), the 50% effective concentration (EC50) was determined as 150 µg/mL (≈ 346 µM).
In data set [2], Magnesium carbonate (heavy) showed a pH of 10.257. For the same molecule, the “EC50 5 min” value in data set [3] (setting [10]) is given as 109.8 (55.61–216.6) 0.9360 mg/L. Besides, the “EC50 15 min” value in data set [3] (setting [11]) is on record as 86.42 (58.99–126.6) 0.9678 mg/L. The “EC50 30 min” value was 65.60 (44.19–97.37) 0.9738 mg/L in data set [3] (setting [9]) and 10 to 100 mg/L in data set [3] (30 min of exposure, 95% confidence interval in brackets, listed as magnesium carbonate). Also, the “Toxicity Category (Based on EC50, 30 min)” value in data set [3] (GHS acute toxicity categories [11]) is recorded as “III ((III) harmful, 10 < EC50 < 100 mg/L)”.
